Laboratory results from article PMC9941179, “Preparation and activity evaluation of angiotensin-I converting enzyme inhibitory peptides from protein hydrolysate of mulberry leaf” (Frontiers in Nutrition, 2023).
Read-outs that look alike come from different tables or passages of the source. Where no end group is shown, it is not given here.

Assays:
ACE [1] = target: T1, ACE (Homo sapiens, UniProt P12821); assay: ACE inhibitory activity of synthetic peptides; format: biochemical
T1 construct: purchased Tong Ren Chemical Co., Ltd. (Institute of Tongren Chemistry, Japan) ACE Kit-WST
Method: The ACE inhibitory activity was determined by ACE Kit-WST (Institute of Tongren Chemistry, Japan). Taking ultra-pure water as blank control, the inhibitory activity of ACE was calculated.
Pinhibitoryrate%=ABlack1-ASample/ABlack1-ABlack2×100%
Each experimental procedure was performed three times, and data were expressed as the mean ± standard deviation. Statistical analyses were conducted by one-way analysis of variance using IBM SPSS 20 (SPSS Inc., Chicago, USA). Duncan’s test was applied to determine the significance of multiple groups. The P-value <0.05 was considered statistically significant.
All the peptides were commercially synthesized and their ACE activity was determined (Figure 8).

ACE [2] = settings: 0.05 mg/L; peptide from broccoli; ref Zhang et al. ([21]); cited from earlier work
Excerpt: It is of high research value to develop efficient antihypertensive products around botanical angiotensin- I converting enzyme (ACE) inhibitory peptides ([11]). Hypertension is a standard chronic disease and the most critical risk factor for cardio-cerebrovascular disease ([12]). The pathogenesis of hypertension is associated with the renin tensin system (Renin-Angiotensin System, RAS) ([13], [14]). RAS contains two key enzymes: hypertension proteinase (Renin) and ACE ([15]). Therefore, inhibiting the enzyme activity of Renin and ACE is one of the treatments for hypertension ([16], [17]). ACE b ...

[3] = synthetic peptide, IC50 used as inhibitor concentration in kinetics, read-out: IC50 (peptide concentration in Table 7) (converted)

T1 sequence (P12821 30-1306, species assumed): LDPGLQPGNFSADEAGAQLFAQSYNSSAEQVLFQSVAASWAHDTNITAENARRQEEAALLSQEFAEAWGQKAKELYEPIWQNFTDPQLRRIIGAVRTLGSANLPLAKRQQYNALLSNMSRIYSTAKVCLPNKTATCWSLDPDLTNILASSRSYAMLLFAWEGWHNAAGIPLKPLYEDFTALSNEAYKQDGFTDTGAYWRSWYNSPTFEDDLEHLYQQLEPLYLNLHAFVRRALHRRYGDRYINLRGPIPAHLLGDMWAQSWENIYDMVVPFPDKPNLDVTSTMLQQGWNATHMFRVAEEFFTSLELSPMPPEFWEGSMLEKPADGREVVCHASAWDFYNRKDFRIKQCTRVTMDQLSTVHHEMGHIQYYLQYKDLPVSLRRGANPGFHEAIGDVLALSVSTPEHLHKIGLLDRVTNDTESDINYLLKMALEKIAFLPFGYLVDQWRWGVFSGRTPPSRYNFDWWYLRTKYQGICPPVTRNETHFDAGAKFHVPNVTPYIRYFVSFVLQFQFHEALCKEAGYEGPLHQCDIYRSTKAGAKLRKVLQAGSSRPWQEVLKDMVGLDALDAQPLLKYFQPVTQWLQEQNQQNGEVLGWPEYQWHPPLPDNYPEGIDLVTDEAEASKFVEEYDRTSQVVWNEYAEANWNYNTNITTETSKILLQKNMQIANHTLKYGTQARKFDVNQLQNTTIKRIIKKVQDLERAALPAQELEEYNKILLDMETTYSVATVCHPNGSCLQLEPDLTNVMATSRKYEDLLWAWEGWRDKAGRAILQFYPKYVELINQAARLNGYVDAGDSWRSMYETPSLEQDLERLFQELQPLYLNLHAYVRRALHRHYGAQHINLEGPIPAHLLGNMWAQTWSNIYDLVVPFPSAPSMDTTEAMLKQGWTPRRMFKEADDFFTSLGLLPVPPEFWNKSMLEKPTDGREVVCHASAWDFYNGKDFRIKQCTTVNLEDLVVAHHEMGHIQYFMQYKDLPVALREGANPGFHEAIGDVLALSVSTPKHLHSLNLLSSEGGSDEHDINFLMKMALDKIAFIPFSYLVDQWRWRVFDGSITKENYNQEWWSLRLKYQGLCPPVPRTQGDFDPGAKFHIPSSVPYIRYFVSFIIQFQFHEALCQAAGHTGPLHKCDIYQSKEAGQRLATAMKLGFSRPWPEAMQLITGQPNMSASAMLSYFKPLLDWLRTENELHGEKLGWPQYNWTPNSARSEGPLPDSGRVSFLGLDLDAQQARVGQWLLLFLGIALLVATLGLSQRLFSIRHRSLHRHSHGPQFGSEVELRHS

| Substance | IC50 (ACE [1]; [3]) [µM] | also measured |
| --- | --- | --- |
| ERFNVE [ERFNVE] | 3340 | – |
| FDDKLD [FDDKLD] | 931 | – |
| Lys - Ser - Val - Leu - Leu - Lys - Phe [peptide from broccoli digest, literature] | – | ACE inhibition rate (ACE [2]): 42.86% |
| MELVLK [MELVLK] | – | IC50 (ACE [1]; chemosynthetic peptide, purity greater than 95%, read-out: IC50 (converted)): 2600 µM |
| TELVLK [TELVLK] | 1400 | – |
